Test [1] concerns the target Acetylcholinesterase (Electrophorus electricus) (UniProt O42275). As to the kind of experiment: Inhibition of electric eel AChE at 10 uM using ATC iodide as substrate preincubated for 4.5 mins followed by substrate addition measured after 2.5 mins by Ellman's method relative to control. In general terms: Ellman's reagent forms a yellow product with free thiols.
The target of test [2] is T1, Cannabinoid receptor 2 (Homo sapiens, UniProt P34972). The test is described as follows: biochemical.
Description: Displacement of [3H]-CP55950 from human CB2 receptor expressed in HEK cell membranes after 3 hrs by scintillation counting method
In test [3] the target is T2, Acetylcholinesterase (Homo sapiens, UniProt P22303). As to the kind of experiment: Inhibition of human erythrocyte AChE at 10 uM using ATC iodide as substrate preincubated for 4.5 mins followed by substrate addition measured after 2.5 mins by Ellman's method relative to control.
Test [4] has as its target T3, Cannabinoid receptor 1 (Homo sapiens, UniProt P21554). The test is described as follows: biochemical. It is filed as cell-based.
Description: Displacement of [3H]-CP55950 from human CB1 receptor expressed in CHO cell membranes after 3 hrs by scintillation counting method
Test [5] addresses T4, Cholinesterase (Homo sapiens, UniProt P06276).
For test [6], the target named is T4, Cholinesterase. The test is described as follows: Inhibition of human BChE at 10 uM using BTC iodide as substrate preincubated for 4.5 mins followed by substrate addition measured after 2.5 mins by Ellman's method relative to control.
In test [7] the target is T3, Cannabinoid receptor 1. The test is described as follows: Displacement of [3H]-[…] from human CB1 receptor expressed in CHO cell membranes at 10 uM after 3 hrs by scintillation counting method relative to control. A general note: Loss of bound radioactivity is the signal in a displacement assay; it reports binding, not function.
The subject of test [8] is U-266. The test is described as follows: Cytotoxicity against human U266 cells assessed as decrease in cell viability after 72 hrs by MTT assay. It is filed as cell-based. The following applies: U-266, 72 h. (Formazan colour is commonly taken as a measure of viable cells.)
The target of test [9] is T1, Cannabinoid receptor 2. The test is described as follows: Agonist activity at CB2 receptor in human U266 cells assessed as decrease in AM630-induced cAMP accumulation at 50 uM after 2 hrs by ELISA. Type of test: functional, cell-based.
For test [10], the target named is T1, Cannabinoid receptor 2. The test is described as follows: Agonist activity at CB2 receptor in human U266 cells assessed as decrease in MIF mRNA expression at 50 uM after 2 hrs by qRT-PCR method. Type of test: cell-based.
The target of test [11] is T1, Cannabinoid receptor 2. The test is described as follows: Agonist activity at CB2 receptor in human U266 cells assessed as decrease in STAT3 mRNA expression at 50 uM after 2 hrs by qRT-PCR method. Type of test: cell-based.
Test [12] deals with T1, Cannabinoid receptor 2. As to the kind of experiment: Agonist activity at CB2 receptor in human U266 cells assessed as decrease in AM630-induced STAT3 mRNA expression at 50 uM after 2 hrs by qRT-PCR method. Type of test: cell-based.
Test [13] deals with Cholinesterase (Equus caballus, UniProt P81908). As to the kind of experiment: Inhibition of equine BChE using BTC iodide as substrate preincubated for 4.5 mins followed by substrate addition measured after 2.5 mins by Ellman's method.
Test [14] addresses T1, Cannabinoid receptor 2. As to the kind of experiment: Agonist activity at CB2 receptor in human U266 cells assessed as decrease in AM630-induced MIF mRNA expression at 50 uM after 2 hrs by qRT-PCR method. It is filed as cell-based.
Test [15] concerns the target T1, Cannabinoid receptor 2. The test is described as follows: Agonist activity at CB2 receptor in human U266 cells assessed as decrease in cAMP accumulation at 50 uM after 2 hrs by ELISA. Type of test: functional, cell-based.
Test [16] deals with Acetylcholinesterase (Electrophorus electricus) (UniProt O42275). The test is described as follows: Inhibition of electric eel AChE at 100 uM using ATC iodide as substrate preincubated for 4.5 mins followed by substrate addition measured after 2.5 mins by Ellman's method relative to control.
Test [17] concerns the target T2, Acetylcholinesterase.
Test [18] has as its target Acetylcholinesterase (Electrophorus electricus, UniProt O42275). The test is described as follows: Inhibition of electric eel AChE using ATC iodide as substrate preincubated for 4.5 mins followed by substrate addition measured after 2.5 mins by Ellman's method.
In test [19] the target is T4, Cholinesterase. As to the kind of experiment: Inhibition of human BChE at 25 uM using BTC iodide as substrate preincubated for 4.5 mins followed by substrate addition measured after 2.5 mins by Ellman's method relative to control.
In test [20] the target is Acetylcholinesterase (Electrophorus electricus) (UniProt O42275). The test is described as follows: Inhibition of electric eel AChE at 25 uM using ATC iodide as substrate preincubated for 4.5 mins followed by substrate addition measured after 2.5 mins by Ellman's method relative to control.

Activity calls are given as the source filed them. The rule behind the calls is not given here.

We go through ten compounds from ChEMBL document CHEMBL4020829, “Structure-Activity Relationships and Computational Investigations into the Development of Potent and Balanced Dual-Acting Butyrylcholinesterase Inhibitors and Human Cannabinoid Receptor 2 Ligands with Pro-Cognitive in Vivo Profiles” (J Med Chem, 2018).

T1 sequence (P34972 whole entry): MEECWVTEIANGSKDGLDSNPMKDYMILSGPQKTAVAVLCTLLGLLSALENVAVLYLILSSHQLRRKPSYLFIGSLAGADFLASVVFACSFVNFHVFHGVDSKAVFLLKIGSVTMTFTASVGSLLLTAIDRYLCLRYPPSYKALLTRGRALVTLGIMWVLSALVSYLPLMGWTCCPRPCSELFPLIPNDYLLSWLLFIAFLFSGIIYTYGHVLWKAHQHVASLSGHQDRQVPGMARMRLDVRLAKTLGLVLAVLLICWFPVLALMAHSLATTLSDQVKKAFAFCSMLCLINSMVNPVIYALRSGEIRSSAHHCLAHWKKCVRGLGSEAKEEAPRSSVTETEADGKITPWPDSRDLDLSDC
T4 sequence (P06276 whole entry): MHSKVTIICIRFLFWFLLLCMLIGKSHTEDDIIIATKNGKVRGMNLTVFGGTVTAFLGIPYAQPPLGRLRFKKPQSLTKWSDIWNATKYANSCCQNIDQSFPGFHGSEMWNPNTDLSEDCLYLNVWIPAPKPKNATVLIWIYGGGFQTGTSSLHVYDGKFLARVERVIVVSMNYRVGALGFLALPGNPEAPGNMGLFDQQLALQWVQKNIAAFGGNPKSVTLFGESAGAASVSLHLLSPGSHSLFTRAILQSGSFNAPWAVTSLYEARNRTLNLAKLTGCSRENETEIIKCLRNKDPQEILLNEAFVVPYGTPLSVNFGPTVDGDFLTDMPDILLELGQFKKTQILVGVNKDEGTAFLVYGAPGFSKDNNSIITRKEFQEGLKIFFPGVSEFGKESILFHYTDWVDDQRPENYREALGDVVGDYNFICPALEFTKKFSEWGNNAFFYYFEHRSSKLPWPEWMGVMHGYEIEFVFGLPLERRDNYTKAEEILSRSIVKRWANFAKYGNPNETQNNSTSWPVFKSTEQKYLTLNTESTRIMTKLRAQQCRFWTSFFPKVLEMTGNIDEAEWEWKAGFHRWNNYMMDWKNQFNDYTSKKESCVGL
T2 sequence (P22303 whole entry): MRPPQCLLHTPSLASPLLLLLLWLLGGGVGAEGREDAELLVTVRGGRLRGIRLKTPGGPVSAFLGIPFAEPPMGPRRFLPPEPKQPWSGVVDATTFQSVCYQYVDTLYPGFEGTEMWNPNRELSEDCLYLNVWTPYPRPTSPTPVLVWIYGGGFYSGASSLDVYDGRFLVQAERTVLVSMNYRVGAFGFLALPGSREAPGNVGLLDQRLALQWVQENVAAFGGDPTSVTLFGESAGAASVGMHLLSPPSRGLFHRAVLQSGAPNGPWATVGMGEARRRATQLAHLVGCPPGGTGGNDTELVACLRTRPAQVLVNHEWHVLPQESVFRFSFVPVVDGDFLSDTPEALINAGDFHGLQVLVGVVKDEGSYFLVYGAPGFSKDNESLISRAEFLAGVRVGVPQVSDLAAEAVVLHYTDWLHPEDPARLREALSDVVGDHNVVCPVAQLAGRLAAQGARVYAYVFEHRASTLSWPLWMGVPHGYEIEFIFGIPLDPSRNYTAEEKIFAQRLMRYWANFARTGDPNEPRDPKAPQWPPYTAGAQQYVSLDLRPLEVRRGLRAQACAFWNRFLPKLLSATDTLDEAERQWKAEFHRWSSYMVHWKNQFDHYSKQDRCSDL
Sequence of Acetylcholinesterase (Electrophorus electricus) (O42275 24-633 limits assumed): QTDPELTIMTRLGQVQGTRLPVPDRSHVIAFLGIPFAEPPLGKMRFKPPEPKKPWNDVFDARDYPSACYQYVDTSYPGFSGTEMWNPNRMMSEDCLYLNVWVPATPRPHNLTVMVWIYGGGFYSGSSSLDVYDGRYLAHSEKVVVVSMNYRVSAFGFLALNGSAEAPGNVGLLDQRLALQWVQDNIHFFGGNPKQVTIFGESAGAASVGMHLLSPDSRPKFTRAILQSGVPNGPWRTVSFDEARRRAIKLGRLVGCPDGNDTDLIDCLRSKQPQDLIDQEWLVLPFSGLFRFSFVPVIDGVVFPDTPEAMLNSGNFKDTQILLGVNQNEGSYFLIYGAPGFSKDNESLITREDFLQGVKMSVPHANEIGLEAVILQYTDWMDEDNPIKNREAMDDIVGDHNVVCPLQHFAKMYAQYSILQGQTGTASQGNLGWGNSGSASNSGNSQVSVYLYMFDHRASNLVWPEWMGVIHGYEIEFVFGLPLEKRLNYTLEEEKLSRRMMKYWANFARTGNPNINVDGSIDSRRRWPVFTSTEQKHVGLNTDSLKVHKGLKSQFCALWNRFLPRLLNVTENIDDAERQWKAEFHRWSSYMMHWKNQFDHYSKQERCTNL
T3 sequence (P21554 whole entry): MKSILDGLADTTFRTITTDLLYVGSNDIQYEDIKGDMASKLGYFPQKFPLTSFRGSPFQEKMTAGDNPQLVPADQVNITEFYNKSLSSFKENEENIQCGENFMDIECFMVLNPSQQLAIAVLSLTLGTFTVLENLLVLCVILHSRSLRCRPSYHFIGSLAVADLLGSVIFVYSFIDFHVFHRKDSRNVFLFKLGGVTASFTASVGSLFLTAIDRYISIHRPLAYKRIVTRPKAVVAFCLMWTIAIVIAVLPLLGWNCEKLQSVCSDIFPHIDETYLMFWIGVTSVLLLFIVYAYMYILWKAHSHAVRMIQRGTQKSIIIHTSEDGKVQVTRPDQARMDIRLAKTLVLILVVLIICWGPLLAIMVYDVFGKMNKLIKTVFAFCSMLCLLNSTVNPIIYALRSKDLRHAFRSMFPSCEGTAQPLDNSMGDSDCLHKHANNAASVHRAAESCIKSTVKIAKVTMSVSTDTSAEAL
Sequence of Acetylcholinesterase (Electrophorus electricus, UniProt O42275) (O42275 whole entry): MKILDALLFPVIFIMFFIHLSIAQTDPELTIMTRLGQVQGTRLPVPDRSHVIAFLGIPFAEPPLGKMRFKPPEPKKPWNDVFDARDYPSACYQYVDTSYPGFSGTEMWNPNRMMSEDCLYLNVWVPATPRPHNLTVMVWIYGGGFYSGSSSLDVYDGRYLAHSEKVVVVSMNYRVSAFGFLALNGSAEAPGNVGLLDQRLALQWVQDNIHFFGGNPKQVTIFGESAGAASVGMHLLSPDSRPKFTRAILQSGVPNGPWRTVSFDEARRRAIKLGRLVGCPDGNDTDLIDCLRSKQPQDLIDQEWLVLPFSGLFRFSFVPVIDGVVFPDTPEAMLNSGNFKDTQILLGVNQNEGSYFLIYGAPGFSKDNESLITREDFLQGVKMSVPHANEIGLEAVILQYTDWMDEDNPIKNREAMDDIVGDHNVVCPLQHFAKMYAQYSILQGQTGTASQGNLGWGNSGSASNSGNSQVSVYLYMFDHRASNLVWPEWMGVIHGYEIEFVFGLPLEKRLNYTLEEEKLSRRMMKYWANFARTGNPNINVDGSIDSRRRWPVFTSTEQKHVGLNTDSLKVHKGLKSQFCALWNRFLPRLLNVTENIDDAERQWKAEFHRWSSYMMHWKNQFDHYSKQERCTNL
Sequence of Cholinesterase (Equus caballus, UniProt P81908) (P81908 whole entry): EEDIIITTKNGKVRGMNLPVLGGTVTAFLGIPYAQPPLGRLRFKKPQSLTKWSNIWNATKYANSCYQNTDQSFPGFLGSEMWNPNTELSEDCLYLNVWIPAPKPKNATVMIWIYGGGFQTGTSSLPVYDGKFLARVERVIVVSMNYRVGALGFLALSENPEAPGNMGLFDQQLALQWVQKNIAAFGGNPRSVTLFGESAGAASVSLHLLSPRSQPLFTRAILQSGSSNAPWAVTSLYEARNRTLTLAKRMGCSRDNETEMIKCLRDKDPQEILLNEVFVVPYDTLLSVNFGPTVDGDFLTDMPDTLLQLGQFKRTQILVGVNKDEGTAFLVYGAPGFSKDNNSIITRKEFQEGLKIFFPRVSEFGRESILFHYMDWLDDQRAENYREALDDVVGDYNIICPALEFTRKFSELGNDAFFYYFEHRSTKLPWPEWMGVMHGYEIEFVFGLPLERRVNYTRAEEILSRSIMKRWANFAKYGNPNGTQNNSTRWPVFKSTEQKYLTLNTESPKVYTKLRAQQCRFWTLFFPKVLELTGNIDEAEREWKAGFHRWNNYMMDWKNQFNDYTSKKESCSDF

As usually defined, the inhibition is the drop in the measured response relative to a control, in per cent. Higher therefore signals a strong effect. The term IC50 denotes the concentration that inhibits the measured activity by half. Broadly, the Ki is a dissociation constant, usually derived from enzyme kinetics or from competition with a known ligand. Read a low Ki as a stronger hold on the target. `CCOc1ccc(Cc2nc3cc(C(=O)N4CCCCC4)ccc3n2CCC(C)C)cc1`: the inhibition in test [1] turned out to be 8%; in test [3], 2%. Besides, the figures for the 50% inhibitory concentration (IC50) in [2], in test [4] and in test [5] were 0.398 µM, 15.8 µM and 5.7 µM, respectively. The Ki stood at 0.384 µM in test [2] and 17 µM in [4].
With `CCOc1ccc(Cc2nc3cc(NC(=O)c4ccccc4)ccc3n2CCC(C)C)cc1`, the inhibition in test [1] came to 2%; in test [6] it was 25%; in [7], 36%. In test [2], this compound gave an IC50 of 3.98 µM. In [2], this compound registered a Ki of 4.3 µM.
With `CCOc1ccc(Cc2nc3cc(C(=O)Nc4ccccc4)ccc3n2CCC(C)C)cc1`, the half-inhibitory concentration (IC50) is > 40 µM in test [8], 15.8 µM in test [2] and 1.2 µM in [5]. In addition, the inhibition in test [1] was 2%; in test [7], 18%; in test [3] it was 5%. The compound further returned an inhibition constant Ki in [2] of 14.4 µM.
For `CCN(CC)C(=O)c1ccc2c(c1)nc(Nc1ccc(Oc3ccccc3)cc1)n2CCC(C)C`, the outcome in test [9], in [10], in [11], in test [12], in [14] and in test [15] was Active. For the same compound, the results for the half-inhibitory concentration (IC50) in [8], in [2] and in [13] were > 40 µM, 0.501 µM and 3.7 µM, respectively. The compound also displayed an inhibition constant (Ki) in test [2] of 0.426 µM. In addition, the inhibition in [6] was found to be 0%; in test [7] it was 45%; in [3], 3%; in [16], 2%.
For `CCCCCCNC(=O)c1ccc2c(c1)nc(Cc1ccc(OCC)cc1)n2CCC(C)C`, the IC50 is > 40 µM in [8], 2 µM in test [2] and 5.2 µM in test [5]. The results for the inhibition in test [1], in [7] and in test [3] were 8%, 39% and 6%, respectively. This compound also displayed a Ki in test [2] of 1.9 µM.
With `CCOc1ccc(Cc2nc3cc(C(=O)NC45CC6CC(CC(C6)C4)C5)ccc3n2CCC(C)C)cc1`, the half-maximal inhibitory concentration (IC50) was > 40 µM in test [8] and 5.01 µM in test [2]. Moreover, the results for the inhibition in test [1], in test [6] and in test [7] were 5%, 1% and 31%, respectively. Besides, the affinity in test [2] corresponds to a Ki of 4.7 µM.
With `CCOc1ccc(Nc2nc3cc(C(=O)N(CC)CC)ccc3n2CCN2CCCCC2)cc1`, the IC50 was 12.6 µM in [2] and 53.4 µM in test [5]. The compound also had a Ki in [2] of 10.4 µM. Besides, the figures for the inhibition in test [7], in [3] and in [16] were 17%, 3% and 18%, respectively.
As to `CCOc1ccc(Cc2nc3cc(C(=O)N(CC)CC)ccc3n2CCCCN2CCCCC2)cc1`, the 50% inhibitory concentration (IC50) in [8] is > 40 µM; in [2], 5.01 µM; in test [5] it was 2.7 µM; in test [17], 60.1 µM; in [18] it was 20.5 µM. Further, the Ki in test [2] came to 4.8 µM. The inhibition in test [7] was found to be 2%.
In turn, `CCN(CC)C(=O)c1ccc2c(c1)nc(Nc1ccc(Oc3ccccc3)cc1)n2CCN1CCCCC1` gave an IC50 in test [2] of 7.94 µM. In [2], this compound displayed a Ki of 8.9 µM. Besides, the inhibition was found to be 37% in test [7], 4% in test [19] and 3% in test [20].
In the case of `CCOc1ccc(Cc2nc3cc(C(=O)N(CC)CC)ccc3n2CCCCCCN2CCCCC2)cc1`, the concentration for half-maximal inhibition (IC50) in test [2] is 1.26 µM; in [5], 8.2 µM; in test [17] it was 20 µM; in test [18], 11.9 µM. Moreover, the affinity in test [2] corresponds to a Ki of 1 µM. The compound also returned an inhibition in [7] of 4%.
